From a melting point compilation (Tetko et al.; mined from patent text by program, amines drawn as free bases though some values may be those of a salt)

| SMILES | melting point [°C] |
| --- | --- |
| Cc1cc2c(cc1C#Cc1ccccc1)NC(=O)CC(c1cccc(-c3nccn3C)c1)=N2 | 202 to 205 |
| CCOC(=O)c1cnn(-c2ccc(C=O)cc2)n1 | 126 to 129 |
| CC(C)=NOCc1nc2c(N)nc3ccccc3c2n1CC(C)C | 194 to 195 |
| CN(C)CCN(Cc1ccccc1)C1=NC(=O)C(=Cc2cccc(-c3cc(F)c(O)c(C45CC6CC(CC(C6)C4)C5)c3)c2)S1 | 242 to 246 |
| O=C1Cc2cccc(OCC3CO3)c2ON1 (stereo unspecified) | 158 to 160 |
| CC(C)c1ccc(CCCN(C)[C@H]2CC[C@H](c3ccc4[nH]c(=O)oc4c3)CC2)cc1 | 179 to 181 |
| CCC(=O)NCCc1cnn2ccc3occc3c12 | 104 to 106 |
| CS(=O)(=O)C(=C1CN(C(c2ccccc2)c2ccccc2)C1)c1cccc(C(N)=O)c1 | 140 |
| CCN(CC)CC1CCCCN1CCNC(=O)N1c2ccccc2C(=O)Nc2cccnc21 (stereo unspecified) | 175 to 176 |
| COc1ccc(C(=O)Nc2c(Cl)cncc2Cl)cc1OC1COCC1OCc1ccccc1 (stereo unspecified) | 190 to 191 |
| C[C@@H](O)c1nccc(N2CCN(c3nc4ccncc4o3)CC2)n1 | 181 to 183 |
| COc1ccc(NS(C)(=O)=O)cc1C(=O)O | 160 to 163 |
| CCc1ccc(Nc2c(C(=O)NOCCO)ccc(F)c2F)c(Cl)c1 | 142 to 145 |
| Cc1cccc(Nc2ncnc3cc(NCCCN(C)C)c(N)cc23)c1 | 60 to 66 |
| C=CCN1N=C(c2ccc3c(c2)N(S(C)(=O)=O)CCO3)CCC1=O | 153 to 155 |
| O=C(CBr)C(O)(c1ccccc1)C1CCC1 (stereo unspecified) | 79 to 80 |
| CCCOc1ccccc1-c1nc2nc(N(CCC)CCC)ncc2c(=O)[nH]1 | 123 to 124 |
| CN1CCN(C(=O)Oc2ccc([N+](=O)[O-])cc2)CC1 | 134 to 135 |
| CC(=O)Nc1nc2ccc(S(=O)(=O)n3c(CCCC(=O)O)cc4nc(Cl)ccc43)cc2s1 | 270 |
| CCOCCCNc1nc(C)[nH]c2cc(-c3ccccc3)nc1-2 | 208 to 210 |
| N#CCOc1ccc2cc(-c3cnc(Cc4ccc5ccccc5c4)o3)ccc2c1 | 155 to 158 |
| Cc1sc2c(Br)c3ccccc3c(-c3ccc(OS(=O)(=O)c4ccc(C(=O)O)c(O)c4)c(C4CCCC4)c3)c2c1C | > 225 |
| COC(=O)NN=Cc1ccc([N+](=O)[O-])cc1 | 212 to 213 |
| COC(=O)c1cc(F)c(C(F)(F)F)cc1[N+](=O)[O-] | 66 to 68 |
| O=C(O)Cn1c(Cc2ccccc2)ccc(NC(=O)CCCc2ccccc2)c1=O | 159 to 161 |
| COc1cc(Br)c2nc(-c3ccc(OC)c(F)c3)cc(O)c2c1 | 200 to 201 |
| O=C(c1cccs1)N1CCc2cc(S(=O)(=O)n3cc(-c4ccccc4)[nH]c3=O)ccc21 | 258 to 260 |
| Cc1cc(Oc2cc(C(F)(F)F)nn2C)nc(-c2ccsc2)n1 | 122 |

| SMILES | melting point [°C] |
| --- | --- |
| CCCn1nc(C(=O)OCC)cc1CC(C)(C)NC(=O)OC(C)(C)C | 109 to 111 |
| Cc1ccc(N2CCN(CCCc3ccc(C4CCC(=O)N4)cc3)CC2)cc1 (stereo unspecified) | 143 to 145 |
| C=Cc1c(N=C2NCCN2)cccc1OC | 126 |
| COC(=O)CCCSC(=S)NCc1ccc(Cl)cc1 | 60 to 62 |
| Cc1nc(N2CCc3ccccc3CC2)c(C#N)c(=O)n1C[C@H]1COC(C)(C)O1 | 166 to 168 |
| CCN(CC)CCNC(=O)c1cccc2nc3cc(I)ccc3nc12 | 140 to 142 |
| CCCc1nc(Cl)c(C(=O)O)n1Cc1ccc(C2(C(=O)O)CC=CC2)s1 | 170 to 172 |
| CC(O)c1ccc2cc(S(N)(=O)=O)sc2c1 (stereo unspecified) | 134 to 135 |
| CC=CCn1c(Nc2cc(C)cc(C)c2)c(C(C)C)c(=O)[nH]c1=O | 186 to 187 |
| N#CN=C(Nc1cccnc1)NC(NC(=O)c1cccc(Cl)c1)C(F)(F)C(F)(F)F (stereo unspecified) | 183 to 185 |
| NC(=NO)c1ccno1 | 146 to 148 |
| Cn1c(CN)nc(-c2ccncn2)cc1=O | 153 to 155 |
| Cc1c(-c2ccccc2)oc2c(CNCCO)cccc2c1=O | 117 |
| CCCCCCCCCCCCCCCCCCOc1cc(N(CC(=O)O)CC(=O)O)cc([N+](=O)[O-])c1 | 131 to 134 |
| CCC(Nc1nc(NC(C)=O)nc(C(C)F)n1)c1ccccc1 (stereo unspecified) | 118 |
| COc1ccc(CN(C)CCC2CN(C)C(=S)c3cccnc3O2)cc1 (stereo unspecified) | 128 to 130 |
| COc1ccc2c(C)c(-c3c(OC)cccc3OC(C)=O)c(=O)oc2c1 | 125 to 126 |
| CC(C)(C)C(=O)c1c[nH]c2ncc(-n3ccnc3)nc12 | 215 to 217 |
| CNc1cccc(S(=O)(=O)c2ccc(N)cc2)c1 | 125 to 126 |
| CCCn1nc(C(C)C)c(C(=O)O)c1Cc1ccc(-c2ccccc2NS(=O)(=O)C(F)(F)F)cc1 | 75 to 78 |
| CC(C)(O)C(O)(C(F)(F)F)C(F)(F)F | 48 |
| O=C(NCCOc1ccc(-c2noc(=O)[nH]2)cc1)C1Cc2ccccc2N1S(=O)(=O)c1ccc(-c2cccc(C(F)(F)F)c2)cc1 (stereo unspecified) | 123 to 130 |
| CCOC(=O)C(Cc1c[nH]c2c(Cl)cccc12)(NC=O)C(=O)OCC | 159 to 162 |
| CCOC(=O)OC12Oc3cc(C(C)C)ccc3C1(O)C(=O)c1ccccc12 (stereo unspecified) | 144 to 147 |
| O=c1[nH]c(=O)c2cc3occoc3cc12 | 277 to 280 |
| O=C1C(Cl)=C(Nc2ccc(O)cc2)C(=O)c2ccccc21 | 233 |
| O=S(=O)(c1ccc(Cl)cc1)N1CCCC1c1ccccc1 (racemic) | 119 |

Continued, values first:

| melting point [°C] | SMILES |
| --- | --- |
| 159 to 162 | COc1cc(N)c(Cl)cc1C(=O)NCC1CCN(CCCCCCNC(=O)c2ccccc2)CC1 |
| > 300 | O=c1c2cc(O)ccc2sc2c([N+](=O)[O-])ccc(Cl)c12 |
| 168 to 170 | CC(=O)[NH+]([O-])C[C@@H]1CN(c2ccc(N3CCN(S(C)(=O)=O)CC3)c(F)c2)C(=O)O1 (stereo partly specified) |
| 85 to 86 | OCCCc1ccc2ccccc2c1O |
| 120 to 122 | O=[N+]([O-])c1cccc(Sc2ccc(-c3ccc(Br)cc3)s2)c1 |
| 87 to 89 | CCNC(Cc1ccc(O)cc1)C(=O)OCC (stereo unspecified) |
| 165 to 170 | CCS(=O)c1nc(N2CCNCC2)c2sc3nc(-c4ccccc4)cc(C)c3c2n1 (stereo unspecified) |
| 58 to 64 | CCCSc1ccccc1S(N)(=O)=O |
| 321 to 322 | CCOc1cc2c(c(OC(C)=O)c1OCC)=NC(=O)C(=O)N=2 |
| 147 to 149 | COc1cc(O)c2c(c1)OC(C(C)(C)C=C1N=C(c3ccccc3)OC1=O)CC2=O (stereo unspecified) |
| 180 to 181 | O=C(O)c1ccc(NCCCOc2ccc(Cl)cc2)cc1 |
| 32 to 33 | CCCCCCCCCCCCCCc1ccc(OCC(CO)OCc2ccccc2)c(CCCCCC)c1 (stereo unspecified) |
| 238 | CNC(=O)NN=C(c1ccc([N+](=O)[O-])cc1)c1cc2c(cc1C[C@H](C)O)OCO2 |
| 153 to 154 | CCCc1nn(Cc2ccc(OCc3nc(-c4ccccc4)oc3C)cc2)cc1CCC(=O)O |
| 186 to 189 | CC(C(N)=O)C(O)(Cn1cncn1)c1ccc(Cl)cc1 (stereo unspecified) |
| 75 to 78 | COC(=O)c1ccc(CN2CCN(C(=O)c3cc(C(F)(F)F)cc(C(F)(F)F)c3)[C@H](Cc3c[nH]c4ccccc34)C2)cc1 |
| 118 to 120 | COC(=O)C(CNC(C)=O)c1cccc2ccc(OC)cc12 (stereo unspecified) |
| 109 to 112 | O=C(O)CCC(NC(=O)c1cccc(-c2ccccc2OC2OC(CO)C(O)C(O)C2O)c1)C(=O)O (stereo unspecified) |
| 207 to 209 | O=C(Cc1ccc(Cl)cc1)Nc1cc(CC2SC(=O)NC2=O)ccc1O (stereo unspecified) |
| > 310 | CCOc1ccc(CC)cc1-c1nc2ccc(C(=O)O)cc2c(=O)[nH]1 |
| 87 to 89 | COC(=O)/C=C/c1ccc(CCC(C)NCC(O)c2cccc(Cl)c2)cc1 (stereo unspecified) |
| 135 to 137 | CC(C)c1nc(C(C)C)c(CCCCO)c(-c2ccc(F)cc2)c1CO |
| 158 to 160 | CN1CC(=O)N(c2ccc3c(c2)CCC3)C1=S |

| melting point [°C] | SMILES |
| --- | --- |
| 126 to 128 | NS(=O)(=O)c1ccc(-n2nc(C(F)(F)F)cc2-c2ccc(Cl)cc2)cc1 |
| 74 to 76 | CCNC(=O)n1nc(Oc2ncc(Cl)cc2Cl)cc1C |
| 265 to 290 | Oc1c(C(O)C(F)(F)F)cnc2c(-c3cc(-c4ccccc4)cs3)cnn12 (stereo unspecified) |
| 249 to 251 | COC1CCN(c2c(F)cc3c(=O)c(C(=O)O)cn4c3c2CCC4C)CC1 (stereo unspecified) |
| 119 to 120 | Cc1cccc(CN2CCC(c3cc(-c4ccc(Cl)cc4)[nH]n3)CC2)c1 |
| 154 | CCOC(=O)COc1ccc(C=CC(=O)O)cc1 |
| 165 | Cc1ccc(=NC#N)n(-c2cccc(C(F)(F)F)c2)c1 |
| 69 | COc1cc(C=O)c(Br)c(OC)c1OC |
| 131 to 132 | Cc1sc(-c2ccccc2)nc1CCOc1ccc([N+](=O)[O-])cn1 |
| 72 to 75 | CCc1noc(C)c1C(C)=NNc1ccccc1 |
| 112 to 115 | CCCCC(CNC(C)=O)(Cn1cncn1)c1ccccc1 (stereo unspecified) |
| 129 to 132 | C=CCc1c(OCCCSCc2nnn[nH]2)ccc(C(C)=O)c1O |
| 112 to 113 | CCCCNC(=O)Cc1cc(=O)oc2cc(OCc3cccc(Cl)c3)ccc12 |
| 139 to 141 | COC(=O)c1cc(-c2ccccc2)c(=O)n2c1-c1cc(Cl)ccc1CC2 |
| 106 to 107 | C=C(C)C(=O)Oc1ccc(S(=O)(=O)NC)cc1 |
| 263 to 266 | O=C(O)CN1C(=O)C(=Cc2ccncc2)SC1=S |
| 164 to 165 | CC(=O)NC(=O)c1ccc(OCCn2ccnc2)cc1 |
| 115 to 116 | FC(F)=C(F)Oc1ccc(C2(c3ccc(OC(F)=C(F)F)cc3)c3ccccc3-c3ccccc32)cc1 |
| 72 to 73 | CC=CCONC(C)=C1C(=O)CC(CCSc2ccc(C(F)(F)F)cc2)CC1=O (stereo unspecified) |
| 281 to 285 | Cc1ccc2c(c1)-n1cc(C(=O)O)nc1CO2 |
| 231 to 235 | CCc1cc(=O)c2nc(OC(C)C)c(Cl)cc2[nH]1 |
| 126 to 128 | CN1CCC(c2nn(-c3ccc(C(F)(F)F)cc3)c3ccc(F)cc23)CC1 |
| > 300 | O=C(O)c1c2c(nc3ccc(F)cc13)-c1ccc(-c3cccc(F)c3)cc1CCC2 |
